The values that follow come from patent US8236963B2, “Tricyclic spiro derivatives as CRTH2 modulators” (Merck Serono SA, priority 2005, dated 2012).

The subject of series [1] is DK-PGD2-induced vascular leakage. Put plainly: Model of DK-PGD2-induced vascular leakage in mice. The note with it: Mus musculus, 1.5 h; dose of 30 mg/kg; 30 min before DK-PGD2 challenge; Evans blue extravasation. Format: in vivo, Balb/c mice. As to the method:
This test is described in Takeshita et al. (2004). Balb/c mice (Elevage Janvier) (8 week old) received an intradermal injection of DK-PGD2 (10 μg in 30 μl) on their shaved backs and an intravenous injection of Evans blue solution (25 mg/kg) 30 min after administration of the test molecules (spiro derivative). Ninety minutes after the challenge, the animals were sacrificed. The skin of the back was removed and blood was sampled. The extravasated dye (punch diameter: 5 mm) was extracted by 0.2 ml of formamide and was quantified by fluorescence (E1: 585 nm, E2: 660 nm). The Evans Blue extravasation ratio was expressed as the following: skin/serum×1000.

The test system of series [2] is DNFB-induced ear swelling. Description: CHS model (contact hypersensitivity to DNFB, ear swelling). Format: in vivo, Balb/c mice. Conditions: 60 mg/kg; po; 30 min before DNFB challenge; ear thickness on day 6. An excerpt: The contact hypersensitivity model can be used to evaluate the therapeutic efficacy of spiro derivatives on skin inflammation mediated by T cells. The model is well established for characterization of compound for dermatological indications like psoriasis and allergic contact dermatitis (Xu et al. J Exp Med. 183, 1001-12, 1996). It involves a sensitization phase and a subsequent challenge with an antigen (DNFB, 2,4-dinitrofluorbenzene). […] The edema can be measured by caliper at the challenged site (ear of the mice). Intravenous or oral administration with 10% Labrasol as vehicle of the compounds of the invention 30 min before challenge with DNFB results in a decrease of the swelling and therefore reduces inflammation in the skin compared to positive controls treated with vehicle only before challenge with the antigen. Negative control mice are not sensitized, but challenged with DNFB, therefore no T cell dependent inflammation occurs and no edema is formed. Balb/c mice were obtained from CharlesRiver (Calcco, Italy). […]
Mice were sensitized and challenged to elicit CHS to DNFB. […] Ear thickness was monitored on day 6 (1 day after challenge) using a caliper (Mitutoyo, Milan, Italy). Ear swelling was calculated as ((Tn−T5)right ear−(Tn−T5)left ear), wherein Tn and T5 represent values of ear thickness at day n of investigation and day 5 prior to challenge, respectively.

Series [3] addresses T1, CRTH2 (Homo sapiens, UniProt Q9Y5Y4).
T1 sequence (Q9Y5Y4 1-395): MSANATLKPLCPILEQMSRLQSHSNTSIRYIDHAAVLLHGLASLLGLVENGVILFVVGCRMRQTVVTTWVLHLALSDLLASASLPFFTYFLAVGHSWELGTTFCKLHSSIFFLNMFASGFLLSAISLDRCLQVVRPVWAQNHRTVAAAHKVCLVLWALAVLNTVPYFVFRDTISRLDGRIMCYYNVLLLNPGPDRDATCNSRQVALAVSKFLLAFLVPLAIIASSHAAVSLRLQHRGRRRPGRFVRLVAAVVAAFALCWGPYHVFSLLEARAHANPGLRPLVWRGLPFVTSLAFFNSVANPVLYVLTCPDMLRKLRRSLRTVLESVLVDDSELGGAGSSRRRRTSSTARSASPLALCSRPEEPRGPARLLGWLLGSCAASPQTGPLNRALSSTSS
Description: Determination of Ki (radioligand binding assay, equilibrium competition against [3H]PGD2). Set-up: expressed in transfected cells; host or cells: HEK293 (EBNA) cells, membrane preparation. Conditions: average of at least three independent dose response experiments. As for the experimental part:
The inhibitory activity can be investigated by a radioligand binding assay (Sawyer et al., Br. J. Pharmocol 2002, 137, 1163-72). The radioligand binding assay was performed at room temperature in binding buffer (10 mM HEPES/KOH pH […], with protease inhibitor cocktail tablets), containing 1.5 nM [^3H]PGD2 (Amersham, 156 Cie/mmol), and 10 μg of hCRTH2 HEK293 (EBNA) cell membrane protein in a final volume of 100 μl in 96 well plates (Corning, USA). Non-specific binding was determined in the presence of 1 μM PGD2 (Cayman, USA). Competing spiro-indolinones were diluted in dimethylsulphoxide so that the total volume of dimethylsulfoxide was kept constant at 1% dimethylsulphoxide (Me2SO) Serial dilutions of 100 μM and […] were prepared. 10 μl each of these spiro-indolinone stock solutions were added. Incubation (60 min at room temperature) was terminated by rapid filtration through 96 wells hydrophobic GF/C Unifilter plates (Whatman, USA). Filters were washed twice with 250 μl of Tris-HCl pH 7.4, 10 mM MnCl2, and residual radioligand bound to the filters was mixed to 100 μl of liquid scintillation cocktail (Optiphase Supermix, Perkin Elmer, USA) and binding activity was determined by counting residual radioligand using a 1450 Micro-beta scintillation counter (Wallac, UK). The following representative compounds were tested. All inhibited the binding of PGD2 to CRTH2 by more than 70%. • (1′-benzyl-5-chloro-2,2′,5′-trioxospiro[indole-3,3′-pyrrolidin]-1(2H)-yl)acetic acid • (1′-benzyl-5-fluoro-2,2′,5′-trioxospiro[indole-3,3′-pyrrolidin]-1(2H)-yl)acetic acid • 4-(1′-allyl-5-chloro-2,2′,5′-trioxospiro[indole-3,3′-pyrrolidin]-1(2H)-yl)butanoic acid • [5-chloro-1′-(2-methoxyethyl)-2,2′,5′-trioxospiro[indole-3,3′-pyrrolidin]-1(2H)-yl]acetic acid • 4-(1′-benzyl-5-chloro-2,2′,5′-trioxospiro[indole-3,3′-pyrrolidin]-1(2H)-yl)butanoic acid • (1′-benzyl-5-methoxy-2,2′,5′-trioxospiro[indole-3,3′-pyrrolidin]-1(2H)-yl)acetic acid • [5-fluoro-1′-[(2-methoxyethoxy)methyl]-2,2′,5′-trioxospiro[indole-3,3′-pyrrolidin]-1(2H)-yl]acetic acid • 4-(1′-allyl-5-fluoro-2,2′,5′-trioxospiro[indole-3,3′-pyrrolidin]-1(2H)-yl)butanoic acid • 4-(1′-benzyl-5-fluoro-2,2′,5′-trioxospiro[indole-3,3′-pyrrolidin]-1(2H)-yl)butanoic acid
Ki values were determined by equilibrium competition binding experiments against [^3H]PGD2. Ki values were calculated from the formula below and represent the average of at least three independent dose response experiments. The Ki values give the ligand concentrations necessary to inhibit 50% of the binding of [^3H]PGD2 to CRTH2. Ki=IC50/(1+[Concentration of Ligand]/Kd)]
All experiments were performed in 96 well plates, in a final volume of 100 μl according to the above described filtration assay. The concentration of membranes and 3 [H]PGD2, as well as the positive and negative controls were identical to the conditions described above.

In series [4] the target is T1, CRTH2. Put plainly: Radioligand binding assay ([3H]PGD2, hCRTH2 HEK293 (EBNA) cell membranes). The note with it: 1.5 nM [3H]PGD2, 10 μg hCRTH2 HEK293 (EBNA) membrane protein, 60 min at room temperature. Set-up: expressed in transfected cells; host or cells: HEK293 (EBNA) cells, membrane preparation. An excerpt:
Human CRTH2 cDNA was amplified by PCR using a human urinary bladder cDNA library as a template and specific primers containing HindIII and BamHI restriction sites for cloning into the pCEP4 vector (Invitrogen). The vector construction is described in detail in Sawyer et al., Br. J. Pharmocol 2002, 137, 1163-72. The nucleotide sequence of the cloned cDNA was identical the previously reported hCRTH2 sequence (Nagata et al, 1999, J. Immunol. 162, 1278-1286).
HEK293 (EBNA) cells were transfected with the pCEP4-hCRTH2 construct using the calcium phosphate technique. Cells were maintained in culture at 37° C. in an atmosphere of 5% CO2 in Dulbecco's modified Eagle's F12 medium (Invitrogen), containing 10% heat-inactivated foetal calf serum (TerraCell International, Canada), 2 mM Glutamine, 100 units/ml of penicillin and 100 μg/ml streptomycin (Invitrogen). 48 hours after the transfection, cells were grown in presence of 300 μg/ml of Hygromycin B (Invitrogen) for 4 weeks and antibiotic resistant cells were amplified for cell membrane preparation.
Adherent HEK293 (EBNA) cells expressing hCRTH2 were cultured in 225 cm^2 cell culture flasks (Corning, USA) in 30 ml of medium. After two rinses of phosphate buffered saline (PBS), cells were harvested in 10 ml of PBS containing 1 mM EDTA, centrifuged at 500×g for 5 min at 4° C. and frozen at −80° C. The pellet was re-suspended in 50 mM Tris-HCl, pH 7.4, 2 mM EDTA, 250 mM Sucrose, containing protease inhibitor cocktail tablets, (Complete EDTA-free, Roche, Germany) and incubated 30 min at 4° C. Cells were disrupted by nitrogen cavitation (Parr Instruments, USA) at 4° C. (800 p.s.i. for 30 min), and centrifuged at 500×g for 10 min at 4° C. Pellet containing nuclei and cellular debris was discarded and supernatant was centrifuged 60 min at 4° C. at 45000×g. Membrane pellet was re-suspended in storage buffer (10 mM HEPES/KOH pH 7.4, 1 mM EDTA, 250 mM sucrose, protease inhibitor cocktail tablets) using Dounce homogenization and frozen in liquid nitrogen, and stored at −80° C.
The inhibitory activity can be investigated by a radioligand binding assay (Sawyer et al., Br. J. Pharmocol 2002, 137, 1163-72). The radioligand binding assay was performed at room temperature in binding buffer (10 mM HEPES/KOH pH […], with protease inhibitor cocktail tablets), containing 1.5 nM [^3H]PGD2 (Amersham, 156 Cie/mmol), and 10 μg of hCRTH2 HEK293 (EBNA) cell membrane protein in a final volume of 100 μl in 96 well plates (Corning, USA). Non-specific binding was determined in the presence of 1 μM PGD2 (Cayman, USA). Competing spiro-indolinones were diluted in dimethylsulphoxide so that the total volume of dimethylsulfoxide was kept constant at 1% dimethylsulphoxide (Me2SO) Serial dilutions of 100 μM and […] were prepared. 10 μl each of these spiro-indolinone stock solutions were added. Incubation (60 min at room temperature) was terminated by rapid filtration through 96 wells hydrophobic GF/C Unifilter plates (Whatman, USA). Filters were washed twice with 250 μl of Tris-HCl pH 7.4, 10 mM MnCl2, and residual radioligand bound to the filters was mixed to 100 μl of liquid scintillation cocktail (Optiphase Supermix, Perkin Elmer, USA) and binding activity was determined by counting residual radioligand using a 1450 Micro-beta scintillation counter (Wallac, UK). The following representative compounds were tested. […]

SMILES strings stand for the structures.

The inhibition in vivo is the drop in the measured response relative to a control, in per cent. High values mean strong suppression, low ones little suppression. In series [1], `O=C(O)CN1C(=O)[C@]2(CC(=O)N(Cc3cccc(Cl)c3)C2=O)c2cc(Cl)ccc21` [Compound 83, (3S)-[5-chloro-1′-(3-chlorobenzyl)-2,2′,5′-trioxospiro[indole-3,3′-pyrrolidin]-1(2H)-yl]acetic acid] came in with an inhibition in vivo at 30 mg/kg of 77%. Also, in series [2], the “reduction in ear swelling” value was found to be 40%.
What is called Ki is the equilibrium dissociation constant of an inhibitor or competing ligand from its target. Lower therefore signals a stronger hold on the target. At CRTH2 [3], `O=C(O)CN1C(=O)C2(NC(=O)N(Cc3cc(Cl)ccc3F)C2=O)c2cc(Cl)ccc21` (stereo not drawn) [Compound 105, [5′-chloro-1-(5-chloro-2-fluorobenzyl)-2,2′,5-trioxospiro[imidazolidine-4,3′-indol]-1′(2′H)-yl]acetic acid] showed a Ki of 16 nM. For the same compound, the inhibition in vivo at 30 mg/kg in series [1] came out at 60%. The “reduction in ear swelling” value in series [2] came to 55%.
Regarding `O=C(O)CN1C(=O)C2(CC(=O)N(Cc3ccccc3)C2)c2cc(Cl)ccc21` (stereo not drawn) [Compound 113, (1′-benzyl-5-chloro-2,5′-dioxospiro[indole-3,3′-pyrrolidin]-1(2H)-yl)acetic acid], the Ki on CRTH2 [3] is 630 nM. In addition, in series [1], the inhibition in vivo at 30 mg/kg came out at 55%.
The corresponding values for `Cc1noc(-c2ccccc2)c1CN1CC2(CC1=O)C(=O)N(CC(=O)O)c1ccc(Cl)cc12` (stereo not drawn) [Compound 114, [5-chloro-1′-[(3-methyl-5-phenylisoxazol-4-yl)methyl]-2,5′-dioxospiro[indole-3,3′-pyrrolidin]-1(2H)-yl]acetic acid] are 3.4 nM and 44%.
The corresponding values for `O=C(O)CN1C(=O)C2(CC(=O)N(Cc3ccccc3F)C2)c2cc(Cl)ccc21` (stereo not drawn) [Compound 115, [5-chloro-1′-(2-fluorobenzyl)-2,5′-dioxospiro[indole-3,3′-pyrrolidin]-1(2H)-yl]acetic acid] are 140 nM and 45%.
As for `O=C(O)CN1C(=O)C2(CC(=O)N(Cc3cc(Cl)ccc3F)C2)c2cc(Cl)ccc21` (stereo not drawn) [Compound 116, [5-chloro-1′-(5-chloro-2-fluorobenzyl)-2,5′-dioxospiro[indole-3,3′-pyrrolidin]-1(2H)-yl]acetic acid], at CRTH2 [3], the Ki worked out at 22 nM. In series [1], this compound showed an inhibition in vivo at 30 mg/kg of 51%.
Usually inhibition stands for how much of the control response was suppressed. A high value points to a response far below the control. By melting point is commonly meant the temperature of the solid-liquid transition. In turn, `O=C(O)CN1C(=O)C2(CC(=O)N(Cc3ccccc3)C2=O)c2cc(Cl)ccc21` (stereo not drawn) [Example 12, (1′-Benzyl-5-chloro-2,2′,5′-trioxo-spiro[indole-3,3′-pyrrolidin]-1-yl)acetic acid] displayed a melting point of 205 to 207 °C. Besides, the inhibition on CRTH2 [4] is > 70%.
